According to US5017689A, “Dynorphin analogs specific for kappa opioid receptors” (Arizona Technology Development Corporation, priority 1989, dated 1991):
Read-outs that look alike come from different tables or passages of the source. Bridge positions count the residues as written; N and C are the ends. Peptide text beside a SMILES is read from it.

Key:
δ opioid receptors = target: T1, δ opioid receptors (Rattus norvegicus, UniProt P33533); assay: Radioligand binding, [3H]DPDPE, brain membranes; conditions: rat brain homogenate, 1.0 nM radioligand
T1 construct: membranes prepared from whole rat brain (less cerebellum); from tissue; host or cells: whole rat brain (less cerebellum) membranes
Method: (§2) Samples were incubated for 1.0 h at 25° C. before filtration through glass fiber filter strips (GF/B, Whatman) pretreated with 0.1% polyethylenimine. Nonspecific binding (=20% of total binding) was defined as binding measured in the presence of 1.0 μM Dyn A1-13.

μ opioid receptors = μ opioid receptors (Rattus norvegicus, UniProt P33535); assay: biochemical
Method: as §2

κ opioid receptors = target: T2, κ opioid receptors (Cavia porcellus, UniProt P41144); assay: Radioligand binding, inhibition of [3H]U-69593 binding to guinea pig brain membrane
T2 construct: from tissue; host or cells: whole guinea pig brain membranes

[1] = test system: guinea pig ileum (GPI) longitudinal muscle/myenteric plexus preparation; assay: Guinea pig ileum (GPI) longitudinal muscle/myenteric plexus bioassay; type: cell-based
Method: The known guinea pig ileum (GPI) longitudinal muscle/myenteric plexus preparation was used for in vitro bioassays (Kosterlitz, H.W., Lydon, R.J., and Watt, A.J., (1970), Br. J. Pharmacol., 39, 398-413). The tissues were suspended under a final tension of 1 g in organ baths, bathed with Krebs buffer (NaCl 118 mM, KCl 4.7 mM, CaCl2 2.5 mM, KH2 PO4 1.19 mM, MgSO4 1.18 mM, NaHCO3 25 mM, and glucose 11.48 mM), maintained at 37° C. and aerated with 95% O2 /5% CO2. Electrical stimuli were 0.4 msec pulses of supramaximal voltage, at a rate 6/min. Isometric contractions were measured via strain gauge force transducers on chart recorders. The mouse vas deferens (MVD) preparation was also performed as described by Hughes et al. (Hughes, J., Kosterlitz, H.W., and Leslie, F.M., (1975), Br. J. Pharmacol., 53, 371-381). The Krebs buffer was made as above, but without magnesium and the tissues were suspended under a final tension of 500 mg. Pulse duration was 2 msec. Dose-response testing in all preparations was carried out in a cumulative fashion. The compounds were tested for intrinsic agonist activity in the two in vitro bioassays. […] Ke values were calculated according to the formula: […]
(§1) where [Ant] is the concentration of the antagonist, and DR is the dose ratio (i.e., IC50 after antagonism divided by the IC50 before antagonist activity was measured).

[2] = test system: mouse vas deferens (MVD) preparation; assay: Mouse vas deferens (MVD) bioassay; type: cell-based
Method: The known guinea pig ileum (GPI) longitudinal muscle/myenteric plexus preparation was used for in vitro bioassays (Kosterlitz, H.W., Lydon, R.J., and Watt, A.J., (1970), Br. J. Pharmacol., 39, 398-413). The tissues were suspended under a final tension of 1 g in organ baths, bathed with Krebs buffer (NaCl 118 mM, KCl 4.7 mM, CaCl2 2.5 mM, KH2 PO4 1.19 mM, MgSO4 1.18 mM, NaHCO3 25 mM, and glucose 11.48 mM), maintained at 37° C. and aerated with 95% O2 /5% CO2. Electrical stimuli were 0.4 msec pulses of supramaximal voltage, at a rate 6/min. Isometric contractions were measured via strain gauge force transducers on chart recorders. The mouse vas deferens (MVD) preparation was also performed as described by Hughes et al. (Hughes, J., Kosterlitz, H.W., and Leslie, F.M., (1975), Br. J. Pharmacol., 53, 371-381). The Krebs buffer was made as above, but without magnesium and the tissues were suspended under a final tension of 500 mg. Pulse duration was 2 msec. Dose-response testing in all preparations was carried out in a cumulative fashion. The compounds were tested for intrinsic agonist activity in the two in vitro bioassays. Thus, concentrations showing intrinsic activity for each analog were tested in the presence of naloxone (1000 nM) to define opioid activity. To further define the opioid selectivity of the agonist effect, the δ selective antagonist ICI 174,864 (Cotton, R., Giles, M.G., Miller, L., Shaw, J.S., and Timms, D. (1984), Eur. J. Pharmacol., 97, 331-332) was utilized in the MVD, and the μ selective antagonists CTAP (Pelton, J.T., Kazmierski, W., Gulya, K., Yamamura, H.I., and Hruby, V.J. (1986), J. Med. Chem., 29, 2370-2375) or CTP (Pelton, J.T., Gulya, K., Hruby, V.J., Duckles, S., and Yamamura, H.I. (1985) Proc. Natl. Acad. Sci. U.S.A., 82, 236-239) were employed in the GPI, all at 1000 nM. Ke values were calculated according to the formula: […]
as §1

kappa opioid receptor = conditions: cited from earlier work
[3] = administered i.c.v.; cited from earlier work
[4] = administered i.c.v.; cited from earlier work; remark: listed apart in the source
[5] = selectivity, ratio of IC50 values

T2 sequence (P41144 whole entry): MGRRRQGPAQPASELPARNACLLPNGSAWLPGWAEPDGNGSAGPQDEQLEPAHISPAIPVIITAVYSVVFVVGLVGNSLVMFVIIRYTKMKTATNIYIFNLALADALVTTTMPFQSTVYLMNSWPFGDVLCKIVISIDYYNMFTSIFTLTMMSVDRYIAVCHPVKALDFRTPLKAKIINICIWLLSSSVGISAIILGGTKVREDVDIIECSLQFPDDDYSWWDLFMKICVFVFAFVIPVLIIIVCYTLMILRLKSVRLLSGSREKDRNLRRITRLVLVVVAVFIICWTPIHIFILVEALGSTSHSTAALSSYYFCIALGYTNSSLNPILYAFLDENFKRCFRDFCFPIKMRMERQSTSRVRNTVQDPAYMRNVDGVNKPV
T1 sequence (P33533 whole entry): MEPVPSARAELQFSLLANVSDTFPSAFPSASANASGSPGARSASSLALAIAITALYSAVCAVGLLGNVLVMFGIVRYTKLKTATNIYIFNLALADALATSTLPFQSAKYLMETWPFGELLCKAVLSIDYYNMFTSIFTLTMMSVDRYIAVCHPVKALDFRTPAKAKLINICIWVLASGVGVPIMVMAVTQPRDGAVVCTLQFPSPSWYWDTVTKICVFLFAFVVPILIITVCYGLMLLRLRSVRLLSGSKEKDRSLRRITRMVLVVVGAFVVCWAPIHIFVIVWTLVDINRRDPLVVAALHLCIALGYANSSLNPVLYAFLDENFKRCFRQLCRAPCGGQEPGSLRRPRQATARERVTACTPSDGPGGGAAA
Sequence of μ opioid receptors (P33535 whole entry): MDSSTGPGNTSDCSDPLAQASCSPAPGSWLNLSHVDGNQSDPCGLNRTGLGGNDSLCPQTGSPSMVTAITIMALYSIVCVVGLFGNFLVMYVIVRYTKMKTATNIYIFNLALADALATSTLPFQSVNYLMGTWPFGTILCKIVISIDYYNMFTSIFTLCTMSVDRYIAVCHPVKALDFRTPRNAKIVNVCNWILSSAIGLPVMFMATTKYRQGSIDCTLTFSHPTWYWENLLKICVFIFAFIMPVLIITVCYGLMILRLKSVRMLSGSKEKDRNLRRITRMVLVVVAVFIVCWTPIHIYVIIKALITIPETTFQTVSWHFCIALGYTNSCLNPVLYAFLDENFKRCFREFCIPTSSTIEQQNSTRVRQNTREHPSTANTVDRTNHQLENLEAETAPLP

Compound | IC50 (δ opioid receptors) [nM] | IC50 (μ opioid receptors) [nM] | IC50 (κ opioid receptors) [nM] | other results
CC(C)C[C@@H]1NC(=O)[C@H](CCCCN)NC(=O)[C@@H]2CCCN2C(=O)[C@H](CCCN=C(N)N)NC(=O)[C@@H](NC(=O)[C@H](CCCN=C(N)N)NC(=O)[C@H](CCCN=C(N)N)NC(=O)[C@H](CC(C)C)NC(=O)[C@H](Cc2ccccc2)NC(=O)CNC(=O)CNC(=O)[C@@H](N)Cc2ccc(O)cc2)CSSC[C@@H](C(N)=O)NC1=O [Compound 3] | 3.97 ± 0.96 | 0.98 ± 0.12 | – | –
CC(C)C[C@H](NC(=O)[C@H](Cc1ccccc1)NC(=O)CNC(=O)CNC(=O)[C@@H](N)Cc1ccc(O)cc1)C(=O)N[C@@H](CCCNC(=N)N)C(=O)N[C@@H](CCCNC(=N)N)C(=O)N[C@@H]1CSSC[C@H](C(N)=O)NC(=O)[C@H](CC(C)C)NC(=O)[C@H](CCCCN)NC(=O)[C@@H]2CCCN2C(=O)[C@H](CCCNC(=N)N)NC1=O [Compound 5] | – | – | – | δ/κ (κ opioid receptors; [5]): 130; μ/κ (κ opioid receptors; [5]): 3; IC50 (κ opioid receptors; κ, guinea pig brain homogenate, 1.0 nM radioligand, read-out: IC50 (nM) [3H]-U-69,593): 0.11 ± 0.009 nM; IC50 [1]: 1.75 nM; Ke (nM) for: NLX ([1]; naloxone 1000 nM): 233 nM; IC50 [2]: 19.5 nM; Ke (nM) for: NLX ([2]; naloxone 1000 nM): 18.2 nM; Ke (nM) for: ICI ([2]; δ antagonist ICI 174,864 1000 nM): 1000 nM; Ke (nM) for: CTAP ([2]; μ antagonist CTAP 1000 nM): 1430 nM
[D-pro^10 ]Dyn A1-11 -OH [DPDYN] | – | – | – | reported binding affinity (kappa opioid receptor; against the kappa ligand [3H]Bremazocine): about 0.032 nM; κ vs. μ and κ vs δ selectivities (kappa opioid receptor): high; activity against thermal stimulus [3]: did not show any activity; effect against chemical pain [4]: dose-related effect
CC(C)C[C@H](NC(=O)[C@H](Cc1ccccc1)NC(=O)CNC(=O)CNC(=O)[C@@H](N)Cc1ccc(Br)cc1)C(=O)N[C@@H](CCCNC(=N)N)C(=O)N[C@@H](CCCNC(=N)N)C(=O)N[C@H](C)C(=O)N[C@@H](CCCNC(=N)N)C(=O)N1CCC[C@H]1C(=O)N[C@@H](CCCCN)C(N)=O [Compound 7, [p-BrPhe^1, D-Ala^8]Dyn A1-11NH2] | 1060 ± 40 | 47 ± 5.1 | 1.7 ± 0.14 | –
CC[C@H](C)[C@H](NC(=O)[C@H](CCCNC(=N)N)NC(=O)[C@H](CCCNC(=N)N)NC(=O)[C@H](CC(C)C)NC(=O)[C@H](Cc1ccccc1)NC(=O)CNC(=O)CNC(=O)[C@@H](N)Cc1ccccc1)C(=O)N[C@@H](CCCNC(=N)N)C(=O)N1CCC[C@@H]1C(=O)N[C@@H](CCCCN)C(N)=O [Compound 6, [Phe^1, D-Pro^10]Dyn A1-11NH2] | 390 ± 52 | 120 ± 22 | 2.4 ± 0.56 | –
CC[C@H](C)[C@@H]1NC(=O)[C@H](CCCN=C(N)N)NC(=O)[C@H](CCCN=C(N)N)NC(=O)[C@@H](NC(=O)[C@H](Cc2ccccc2)NC(=O)CNC(=O)CNC(=O)[C@@H](N)Cc2ccc(O)cc2)CSSC[C@@H](C(N)=O)NC(=O)[C@@H]2CCCN2C(=O)[C@H](CCCN=C(N)N)NC1=O [Compound 1] (H-YGGFCRRIRPC-NH2; disulfide 5-11) | 18.6 ± 7.5 | 2.3 ± 0.72 | 0.39 ± 0.06 | –
CC(C)C[C@@H]1NC(=O)[C@H](CCCCN)NC(=O)[C@@H]2CCCN2C(=O)[C@H](CCCNC(=N)N)NC(=O)[C@H](NC(=O)[C@H](CCCNC(=N)N)NC(=O)[C@H](CCCNC(=N)N)NC(=O)[C@H](CC(C)C)NC(=O)[C@H](Cc2ccccc2)NC(=O)CNC(=O)CNC(=O)[C@@H](N)Cc2ccc(O)cc2)CSSC[C@@H](C(N)=O)NC1=O [Compound 4] | 104 ± 1.86 | 10.3 ± 3.9 | – | –
CC[C@H](C)[C@H](NC(=O)[C@H](CCCN=C(N)N)NC(=O)[C@H](CCCN=C(N)N)NC(=O)[C@H](CC(C)C)NC(=O)[C@H](Cc1ccccc1)NC(=O)CNC(=O)CNC(=O)[C@@H](N)Cc1ccc(O)cc1)C(=O)N[C@@H](CCCN=C(N)N)C(=O)N1CCC[C@H]1C(=O)N[C@@H](CCCCN)C(=O)N[C@@H](CC(C)C)C(=O)N[C@@H](CCCCN)C(N)=O [Dyn A1-13NH2, reference compound] | 2.96 | 1.33 | 0.109 ± 0.003 | –
C[C@H]1NC(=O)[C@H](CCCNC(=N)N)NC(=O)[C@H](CCCNC(=N)N)NC(=O)[C@@H](NC(=O)[C@H](Cc2ccccc2)NC(=O)CNC(=O)CNC(=O)[C@@H](N)Cc2ccc(O)cc2)CSSC[C@@H](C(N)=O)NC(=O)[C@@H]2CCCN2C(=O)[C@H](CCCNC(=N)N)NC1=O [Compound 2] | 1.63 ± 0.53 | 0.27 ± 0.14 | 0.28 ± 0.036 | –
